For assay [1], the system named is blood platelet aggregation. The experiment in a line: Blood platelet aggregation inhibition in vitro in rabbit PRP, ADP induced. It counts as cell-based, male, New Zealand strain house rabbit. Conditions: Oryctolagus cuniculus, ADP final concentration 5 μM, 37° C., 3 minutes preincubation, 50% inhibition of maximum aggregation rate. Here is the method:
(§1) Citrated blood (one volume of 3.2% sodium citrate; 9 volumes of blood) was collected from carotid artery of male, New Zealand strain house rabbit, centrifuged at 150 g for 15 minutes to give platelet rich plasma (PRP) as a supernatant, and the remaining blood was centrifuged at 1500 g for 10 minutes to give platelet poor plasma (PPP) as a supernatant. The platelet count of PRP was adjusted to 50-60×10^4 /μl by dilution of PPP. Blood platelet aggregation was carried out according to the method of Born [Born, G. V. R., Nature, 194, 927 (1962)]. Namely, 25 μl of the test drug, (all the test drugs were dissolved in dimethyl sulfoxide and adjusted to the desired concentration with physiological saline solution), was added to 250 μl of PRP, and the mixture was incubated at 37° C. for 3 minutes. 25 μl of the aggregation inducing substance [adenosine diphosphate (ADP); final concentration 5 μM or collagen: final concentration 5 μg/ml] was added, the mixture was measured for 5 minutes by blood platelet aggregation ability measurement apparatus (Aggricoda TM-PA-3210, Kyoto Dai-ichi Kagaku) to obtain the maximum aggregation rate, and there was calculated the concentration of the test drug (ICP50) which brings about 50% inhibition to the maximum aggregation rate obtained by adding the aggregation inducing substance to PRP containing the solvent only.
(§2) The compound numbers in Table 1 correspond to those in the Examples described below.

Assay [2] concerns blood platelet aggregation. The experiment in a line: Blood platelet aggregation inhibition in vitro in rabbit PRP, collagen induced. It counts as cell-based, male, New Zealand strain house rabbit. Conditions: Oryctolagus cuniculus, collagen final concentration 5 μg/ml, 37° C., 3 minutes preincubation, 50% inhibition of maximum aggregation rate. The procedure:
as §1, §2

IC50 data for 41 compounds are collected here from patent US4803266A, “3-Oxoalkylidene-2-azetidinone derivatives” (Taisho Pharmaceutical Co., Ltd., priority 1986, dated 1989).

On to `Cc1ccc(C(=O)/C=C2/C(=O)N(c3ccc(Cl)cc3C)C2c2ccccc2)cc1` (centres unmarked) [Compound 21], for which the midpoint of inhibition in assay [1], the IC50, lay at 30.9 µM.
As to `CCOC(=O)CC(=O)/C=C1/C(=O)N(c2ccccc2)C1c1ccccc1` (centres unmarked) [Compound 15], the IC50 (as a rule, the concentration needed to halve the response being measured) in assay [1] turned out to be 21.5 µM; in assay [2], 16.6 µM.
For the compound `O=C(/C=C1/C(=O)N(Cc2ccc(Cl)cc2Cl)C1c1ccccc1)c1ccc([N+](=O)[O-])cc1` (centres unmarked) [Compound 103], the IC50 is 18.5 µM in assay [1] and 6.7 µM in assay [2].
`COc1ccc(C(=O)/C=C2/C(=O)N(c3ccc(Br)cc3)C2c2ccccc2)cc1` (centres unmarked) [Compound 39]: the IC50 in assay [1] and in assay [2] was greater than 30 µM each time.
Regarding `O=C(/C=C1/C(=O)N(c2cc(Cl)cc(Cl)c2)C1c1ccccc1)c1ccc(F)cc1` (centres unmarked) [Compound 37], the results for the IC50 in assay [1] and in assay [2] were 21.2 µM and 17.8 µM, respectively.
For `O=C(/C=C1/C(=O)N(c2cccc(C(F)(F)F)c2)C1c1ccccc1)c1ccc(F)cc1` (centres unmarked) [Compound 44] the same measures were 10.3 µM and 7.3 µM.
As for `Cc1ccc(Cl)cc1N1C(=O)/C(=C/C(=O)c2ccccc2)C1c1ccccc1` (centres unmarked) [Compound 26], the IC50 in assay [1] is 16.5 µM; in assay [2] it was 9.5 µM.
In assay [1], `O=C(/C=C1/C(=O)N(Cc2ccccc2)C1c1ccccc1)c1ccc(F)cc1` (centres unmarked) [Compound 52] displayed a half-inhibitory concentration (IC50) of 7.9 µM.
Consider `O=C(/C=C1/C(=O)N(c2ccccc2)C1c1ccc(F)cc1)c1ccc([N+](=O)[O-])cc1` (centres unmarked) [Compound 77], for which the results for the IC50 in assay [1] and in assay [2] were 4.3 µM and 2.9 µM, respectively.
For `O=C(/C=C1/C(=O)N(c2ccc(F)cc2)C1c1ccccc1)c1ccc([N+](=O)[O-])cc1` (centres unmarked) [Compound 32] the same measures were 3.5 µM and 3.8 µM.
Take `O=C(/C=C1/C(=O)N(c2ccccc2F)C1c1ccccc1)c1ccc(F)cc1` (centres unmarked) [Compound 33]: the IC50 was 11.9 µM in assay [1] and 12.5 µM in assay [2].
Consider `COc1ccc(C(=O)/C=C2/C(=O)N(c3ccccc3)C2c2ccccc2)c(OC)c1` (centres unmarked) [Compound 7], for which the IC50 in assay [1] came to 12 µM; in assay [2] it was 23 µM.
For `Cc1cc(Cl)ccc1N1C(=O)/C(=C/C(=O)c2ccc([N+](=O)[O-])cc2)C1c1ccccc1` (centres unmarked) [Compound 24], the IC50 in assay [1] is 6.4 µM.
On to `COc1ccc(CN2C(=O)/C(=C/C(=O)c3ccc([N+](=O)[O-])cc3)C2c2ccccc2)cc1` (centres unmarked) [Compound 92], for which the IC50 in assay [1] came out at 7.3 µM; in assay [2], 6.5 µM.
For `O=C(/C=C1/C(=O)N(c2cc(Cl)cc(Cl)c2)C1c1ccccc1)c1ccc([N+](=O)[O-])cc1` (centres unmarked) [Compound 38], the IC50 in assay [1] is 9 µM; in assay [2], 4.6 µM.
For `O=C(/C=C1/C(=O)N(Cc2cccc(Cl)c2)C1c1ccccc1)c1ccc([N+](=O)[O-])cc1` (centres unmarked) [Compound 97], the values for the IC50 in assay [1] and in assay [2] were 16 µM and 3.2 µM, respectively.
For `Cc1ccc(C(=O)/C=C2/C(=O)N(c3ccccc3)C2c2ccccc2)cc1` (centres unmarked) [Compound 5] the same measures were 24 µM and 23.5 µM.
In the case of `O=C(/C=C1/C(=O)N(c2ccc(F)cc2)C1c1ccccc1)c1ccccc1` (centres unmarked) [Compound 29], the IC50 in assay [1] turned out to be 9 µM; in assay [2] it was 8.1 µM.
For `CCc1ccc(C2/C(=C\C(=O)c3ccc(F)cc3)C(=O)N2c2ccccc2C)cc1` (centres unmarked) [Compound 67] the same measures were 27.7 µM and 11 µM.
For `Cc1ccccc1N1C(=O)/C(=C/C(=O)c2ccc(F)cc2)C1c1ccc(F)cc1` (centres unmarked) [Compound 78] the same measures were 6.2 µM and 8.3 µM.
As for `Cc1ccccc1N1C(=O)/C(=C/C(=O)c2ccc([N+](=O)[O-])cc2)C1c1ccc(F)cc1` (centres unmarked) [Compound 79], the IC50 turned out to be 4.3 µM in assay [1] and 5.1 µM in assay [2].
`O=C(/C=C1/C(=O)N(c2cccc(C(F)(F)F)c2)C1c1ccccc1)c1ccc([N+](=O)[O-])cc1` (centres unmarked) [Compound 45]: the values for the IC50 in assay [1] and in assay [2] were 4.4 µM and 5.2 µM, respectively.
For `O=C(/C=C1/C(=O)N(c2ccccc2)C1c1ccccc1)c1ccc(-c2ccccc2)cc1` (centres unmarked) [Compound 11] the same measures were greater than 30 µM and 22 µM.
Turning to `O=C(/C=C1/C(=O)N(c2ccc(Br)cc2)C1c1ccccc1)c1ccc(F)cc1` (centres unmarked) [Compound 40], the figures for the IC50 in assay [1] and in assay [2] were 11.3 µM and 13.2 µM, respectively.
For `O=C(/C=C1/C(=O)N(Cc2ccccc2Cl)C1c1ccccc1)c1ccc([N+](=O)[O-])cc1` (centres unmarked) [Compound 56] the same measures were 2.9 µM and 6.5 µM.
Consider `CC(=O)/C=C1/C(=O)N(c2cc(Cl)ccc2C)C1c1ccccc1` (centres unmarked) [Compound 25], for which the IC50 turned out to be 11.1 µM in assay [1] and 6.6 µM in assay [2].
As for `O=C(/C=C1/C(=O)N(Cc2ccccc2Cl)C1c1ccccc1)c1ccc(F)cc1` (centres unmarked) [Compound 55], the results for the IC50 in assay [1] and in assay [2] were 10.5 µM and 8.3 µM, respectively.
As for `COc1ccc(C(=O)/C=C2/C(=O)N(c3ccccc3)C2c2ccccc2)cc1` (centres unmarked) [Compound 6], the IC50 in assay [1] was 24 µM; in assay [2], 18 µM.
For `O=C(/C=C1/C(=O)N(c2ccccc2)C1c1ccccc1F)c1ccc(F)cc1` (centres unmarked) [Compound 80] the same measures were 7.4 µM and 10.9 µM.
For `O=C(/C=C1/C(=O)N(c2ccccc2)C1c1ccccc1)c1ccc(Cl)cc1` (centres unmarked) [Compound 9] the same measures were 15 µM and 12 µM.
Take `Cc1ccccc1N1C(=O)/C(=C/C(=O)c2ccc(F)cc2)C1c1ccccc1` (centres unmarked) [Compound 17]: the figures for the IC50 in assay [1] and in assay [2] were 7.7 µM and 5 µM, respectively.
For `O=C(/C=C1/C(=O)N(c2ccc(Br)cc2)C1c1ccccc1)c1ccc([N+](=O)[O-])cc1` (centres unmarked) [Compound 41] the same measures were 4.2 µM and 5.1 µM.
`O=C(/C=C1/C(=O)N(c2cccc(C(F)(F)F)c2)C1c1ccccc1)c1ccccc1` (centres unmarked) [Compound 43]: the IC50 in assay [1] was 14 µM; in assay [2] it was 7.7 µM.
Regarding `O=C(/C=C1/C(=O)N(Cc2ccc(F)cc2)C1c1ccccc1)c1ccc([N+](=O)[O-])cc1` (centres unmarked) [Compound 93], the IC50 in assay [1] came to 18.3 µM; in assay [2], 8.7 µM.
Turning to `O=C(/C=C1/C(=O)N(Cc2ccccc2F)C1c1ccccc1)c1ccc([N+](=O)[O-])cc1` (centres unmarked) [Compound 96], the IC50 came out at 3.9 µM in assay [1] and 3.7 µM in assay [2].
In the case of `CC(=O)/C=C1/C(=O)N(c2ccccc2)C1c1ccccc1` (centres unmarked) [Compound 1, (E)-3-(2-oxopropylidene)-1,4-diphenyl-2-azetidinone], the values for the IC50 in assay [1] and in assay [2] were 33 µM and 14 µM, respectively.
For `O=C(/C=C1/C(=O)N(c2ccccc2)C1c1ccc(F)cc1)c1ccc(F)cc1` (centres unmarked) [Compound 76] the same measures were 14.3 µM and 10.5 µM.
For `Cc1ccccc1N1C(=O)/C(=C/C(=O)c2ccc(F)cc2)C1c1ccc(Br)cc1` (centres unmarked) [Compound 85] the same measures were 17.7 µM and 14.4 µM.
Consider `O=C(/C=C1/C(=O)N(c2ccccc2)C1c1ccccc1)c1ccc(Br)cc1` (centres unmarked) [Compound 10], for which the IC50 was determined as 36 µM in assay [1] and 26 µM in assay [2].
Compound `O=C(/C=C1/C(=O)N(Cc2ccccc2)C1c1ccccc1)c1ccc([N+](=O)[O-])cc1` (centres unmarked) [Compound 53] displayed an IC50 in assay [1] of 4.9 µM.
Still for that read-out and setting: in the case of `COc1ccc(C(=O)/C=C2/C(=O)N(c3ccc(Cl)cc3C)C2c2ccccc2)cc1` (centres unmarked) [Compound 22] it was 41.3 µM.
